Experimental data as given in article PMC7280082 (Acta Pharmaceutica Sinica. B, 2019).

Key:
[1] = tested on: WT HIV-1 (IIIB); experiment: microbe, parasite or virus in culture; format: cell-based; conditions: for EC50: Human immunodeficiency virus 1, IIIB, MT4, read-out: EC50 IIIB; for SI IIIB: ratio of CC50/EC50
[2] = tested on: HIV-2 strain (ROD); experiment: Anti-HIV-2; format: cell-based; conditions: for EC50: Human immunodeficiency virus 2, MT4, read-out: EC50 ROD; for SI ROD: ratio of CC50/EC50
[3] = tested on: HIV-1 L100I mutant strain; experiment: microbe, parasite or virus in culture; format: cell-based; conditions: for SI L100I: CC50/EC50; for EC50: Human immunodeficiency virus 1, MT4, read-out: EC50 L100I; for RF L100I: ratio of EC50 (resistant viral strain)/EC50 (wild-type viral strain)
[4] = tested on: HIV-1 K103N mutant strain; experiment: microbe, parasite or virus in culture; format: cell-based; conditions: for SI K103N: CC50/EC50; for EC50: Human immunodeficiency virus 1, MT4, read-out: EC50 K103N; for RF K103N: ratio of EC50 (resistant viral strain)/EC50 (wild-type viral strain)
[5] = tested on: HIV-1 Y181C mutant strain; experiment: microbe, parasite or virus in culture; format: cell-based; conditions: for SI Y181C: CC50/EC50; for EC50: Human immunodeficiency virus 1, MT4, read-out: EC50 Y181C; for RF Y181C: ratio of EC50 (resistant viral strain)/EC50 (wild-type viral strain)
[6] = tested on: HIV-1 Y188L mutant strain; experiment: microbe, parasite or virus in culture; format: cell-based; conditions: for SI Y188L: CC50/EC50; for EC50: Human immunodeficiency virus 1, MT4, read-out: EC50 Y188L; for RF Y188L: ratio of EC50 (resistant viral strain)/EC50 (wild-type viral strain)
[7] = tested on: HIV-1 E138K mutant strain; experiment: microbe, parasite or virus in culture; format: cell-based; conditions: for SI E138K: CC50/EC50; for EC50: Human immunodeficiency virus 1, MT4, read-out: EC50 E138K; for RF E138K: ratio of EC50 (resistant viral strain)/EC50 (wild-type viral strain)
[8] = tested on: HIV-1 F227L + V106A double-mutant strain; experiment: microbe, parasite or virus in culture; format: cell-based; conditions: for SI F227L + V106A: CC50/EC50; for EC50: Human immunodeficiency virus 1, MT4, read-out: EC50 F227L + V106A; for RF F227L + V106A: ratio of EC50 (resistant viral strain)/EC50 (wild-type viral strain)
[9] = tested on: HIV-1 RES056 (K103N + Y181C) double-mutant strain; experiment: microbe, parasite or virus in culture; format: cell-based; conditions: for SI RES056: CC50/EC50; for EC50: Human immunodeficiency virus 1, MT4, read-out: EC50 RES056; for RF RES056: ratio of EC50 (resistant viral strain)/EC50 (wild-type viral strain)
[10] = target: WT HIV-1 RT (Human immunodeficiency virus type 1 group M subtype B, UniProt P03366); experiment: Recombinant HIV-1 RT inhibitory assay; format: biochemical
[11] = Cytotoxicity in mock-infected MT-4 cell cultures, MTT method; conditions: human, mock-infected MT-4 cells

| SMILES | EC50 [1] [nM] | SI IIIB [1] | EC50 [2] [nM] | SI ROD [2] | SI L100I [3] | EC50 [3] [nM] | RF L100I [3] | SI K103N [4] | EC50 [4] [nM] | RF K103N [4] | SI Y181C [5] | EC50 [5] [nM] | RF Y181C [5] | SI Y188L [6] | EC50 [6] [nM] | RF Y188L [6] | SI E138K [7] | EC50 [7] [nM] | RF E138K [7] | SI F227L + V106A [8] | also measured |
| --- | --- | --- | --- | --- | --- | --- | --- | --- | --- | --- | --- | --- | --- | --- | --- | --- | --- | --- | --- | --- | --- |
| Cc1cc(-c2ccsc2)cc(C)c1Oc1nc(NC2CCN(Cc3ccc(S(N)(=O)=O)cc3)CC2)nc2ccsc12 [Compound 17, 4-((4-((4-(2,6-Dimethyl-4-(thiophen-3-yl)phenoxy)thieno[3,2-d]pyrimidin-2-yl)amino)piperidin-1-yl)methyl)benzenesulfonamide] | 31.6 ± 17.7 | 489 | 4800 ± 916 | 3 | 203 | 76 ± 17.2 | 2.4 | 865 | 17.9 ± 1.51 | 0.6 | 245 | 63.2 ± 16.1 | 2.0 | 249 | 62 ± 5.83 | 2.0 | 295 | 52.5 ± 11.3 | 1.7 | 272 | EC50 [8]: 56.8 ± 3.85 nM; RF F227L + V106A [8]: 1.8; SI RES056 [9]: 17; EC50 [9]: 932 ± 88.4 nM; RF RES056 [9]: 29.5; IC50 [10]: 167 ± 14 nM; CC50 at 5 days [11]: 15400 ± 5860 nM |
| Cc1cc(-c2ccccc2)cc(C)c1Oc1nc(NC2CCN(Cc3ccc(S(N)(=O)=O)cc3)CC2)nc2ccsc12 [Compound 19, 4-((4-((4-((3,5-Dimethyl-[1,1′-biphenyl]-4-yl)oxy)thieno[3,2-d]pyrimidin-2-yl)amino)piperidin-1-yl)methyl)benzenesulfonamide] | 43.8 ± 15.6 | 487 | 6140 ± 272 | 3 | 62 | 344 ± 117 | 7.9 | 356 | 59.9 ± 6.01 | 1.4 | 127 | 167 ± 24.5 | 3.8 | 176 | 121 ± 9.19 | 2.8 | 200 | 107 ± 18.8 | 2.4 | 106 | EC50 [8]: 200 ± 10.4 nM; RF F227L + V106A [8]: 4.6; SI RES056 [9]: 12; EC50 [9]: 1710 ± 473 nM; RF RES056 [9]: 39.1; IC50 [10]: 164 ± 5 nM; CC50 at 5 days [11]: 21300 ± 1260 nM |
| Cc1cc(-c2ccccc2)cc(C)c1Oc1nc(NC2CCN(Cc3ccc(C(N)=O)cc3)CC2)nc2ccsc12 [Compound 20, 4-((4-((4-((3,5-Dimethyl-[1,1′-biphenyl]-4-yl)oxy)thieno[3,2-d]pyrimidin-2-yl)amino)piperidin-1-yl)methyl)benzamide] | 47.7 ± 11.8 | 367 | 3840 ± 1760 | 5 | 42 | 416 ± 87.9 | 8.7 | 171 | 102 ± 2.5 | 2.1 | 89 | 196 ± 54.6 | 4.1 | 85 | 205 ± 13.6 | 4.3 | 120 | 146 ± 12.5 | 3.1 | 44 | EC50 [8]: 395 ± 5.14 nM; RF F227L + V106A [8]: 8.3; SI RES056 [9]: 10; EC50 [9]: 1733 ± 5.51 nM; RF RES056 [9]: 36.3; IC50 [10]: 161 ± 14 nM; CC50 at 5 days [11]: 17500 ± 6180 nM |
| COc1ccc(-c2cc(C)c(Oc3nc(NC4CCN(Cc5ccc(S(N)(=O)=O)cc5)CC4)nc4ccsc34)c(C)c2)cc1 [Compound 21, 4-((4-((4-((4′-Methoxy-3,5-dimethyl-[1,1′-biphenyl]-4-yl)oxy)thieno[3,2-d]pyrimidin-2-yl)amino)piperidin-1-yl)methyl)benzenesulfonamide] | 61.1 ± 10.3 | 272 | > 16600 | <1 | 98 | 169 ± 2.91 | 2.8 | 289 | 57.6 ± 0.67 | 0.9 | 105 | 157 ± 5.61 | 2.6 | 114 | 146 ± 44.7 | 2.4 | 145 | 114 ± 9.2 | 1.9 | 136 | EC50 [8]: 122 ± 59.9 nM; RF F227L + V106A [8]: 2.0; SI RES056 [9]: 11; EC50 [9]: 1560 ± 1280 nM; RF RES056 [9]: 25.6; IC50 [10]: 268 ± 52 nM; CC50 at 5 days [11]: 16600 ± 4650 nM |
| COc1ccc(-c2cc(C)c(Oc3nc(NC4CCN(Cc5ccc(C(N)=O)cc5)CC4)nc4ccsc34)c(C)c2)cc1 [Compound 22, 4-((4-((4-((4′-Methoxy-3,5-dimethyl-[1,1′-biphenyl]-4-yl)oxy)thieno[3,2-d]pyrimidin-2-yl)amino)piperidin-1-yl)methyl)benzamide] | 52.6 ± 11.4 | 256 | 5040 ± 685 | 3 | 50 | 268 ± 103 | 5.1 | 230 | 58.4 ± 7.14 | 1.1 | 85 | 158 ± 27.3 | 3.0 | 122 | 110 ± 3.57 | 2.1 | 90 | 149 ± 42 | 2.8 | 45 | EC50 [8]: 297 ± 39.8 nM; RF F227L + V106A [8]: 5.7; SI RES056 [9]: 12; EC50 [9]: 1120 ± 353 nM; RF RES056 [9]: 21.4; IC50 [10]: 233 ± 28 nM; CC50 at 5 days [11]: 13400 ± 5940 nM |
| Cc1cc(-c2ccc(F)cc2)cc(C)c1Oc1nc(NC2CCN(Cc3ccc(S(N)(=O)=O)cc3)CC2)nc2ccsc12 [Compound 23, 4-((4-((4-((4′-Fluoro-3,5-dimethyl-[1,1′-biphenyl]-4-yl)oxy)thieno[3,2-d]pyrimidin-2-yl)amino)piperidin-1-yl)methyl)benzenesulfonamide] | 11.3 ± 2.07 | 1492 | 3280 ± 1260 | 5 | 372 | 45.4 ± 5.26 | 4.0 | 1441 | 11.7 ± 1.03 | 1.0 | 377 | 44.8 ± 5.26 | 4.0 | 326 | 51.8 ± 8.47 | 4.6 | 547 | 30.9 ± 5.26 | 2.7 | 363 | EC50 [8]: 46.6 ± 15.5 nM; RF F227L + V106A [8]: 4.1; SI RES056 [9]: 43; EC50 [9]: 388 ± 76.2 nM; RF RES056 [9]: 34.3; IC50 [10]: 211 ± 15 nM; CC50 at 5 days [11]: 16900 ± 4770 nM |
| Cc1cc(-c2ccc(F)cc2)cc(C)c1Oc1nc(NC2CCN(Cc3ccc(C(N)=O)cc3)CC2)nc2ccsc12 [Compound 24, 4-((4-((4-((4′-Fluoro-3,5-dimethyl-[1,1′-biphenyl]-4-yl)oxy)thieno[3,2-d]pyrimidin-2-yl)amino)piperidin-1-yl)methyl)benzamide] | 12.8 ± 2.73 | 532 | ≥ 5660 | <1 | 111 | 61.1 ± 9.35 | 4.8 | 578 | 11.7 ± 1.09 | 0.9 | 189 | 36.1 ± 1.21 | 2.8 | 132 | 51.4 ± 9.6 | 4.0 | 195 | 34.8 ± 10.6 | 2.7 | 120 | EC50 [8]: 56.6 ± 13.7 nM; RF F227L + V106A [8]: 4.4; SI RES056 [9]: 12; EC50 [9]: 575 ± 120 nM; RF RES056 [9]: 44.9; IC50 [10]: 171 ± 10 nM; CC50 at 5 days [11]: 6800 ± 3130 nM |
| Cc1cc(-c2ccc(C#N)cc2)cc(C)c1Oc1nc(NC2CCN(Cc3ccc(S(N)(=O)=O)cc3)CC2)nc2ccsc12 [Compound 25, 4-((4-((4-((4′-Cyano-3,5-dimethyl-[1,1′-biphenyl]-4-yl)oxy)thieno[3,2-d]pyrimidin-2-yl)amino)piperidin-1-yl)methyl)benzenesulfonamide] | 17 ± 5.78 | 312 | 5560 ± 42.3 | 1 | 194 | 27.4 ± 4.41 | 1.6 | 403 | 13.2 ± 0.33 | 0.8 | 173 | 30.8 ± 0.11 | 1.8 | 99 | 53.6 ± 3.5 | 3.2 | 120 | 44.4 ± 3.62 | 2.6 | 89 | EC50 [8]: 59.9 ± 10.2 nM; RF F227L + V106A [8]: 3.5; SI RES056 [9]: 51; EC50 [9]: 103 ± 3.39 nM; RF RES056 [9]: 6.1; IC50 [10]: 288 ± 26 nM; CC50 at 5 days [11]: 5310 ± 2560 nM |
